Consider seven molecules from paper PMC9698201, “Factors Affecting Cellular Uptake of Anthocyanins: The Role of pH, Glucose and Anthocyanin Structure” (Nutrients, 2022).

One data set concerns Caco-2 cells. Kind of data set: Uptake experiment, anthocyanins taken up by cells quantified by HPLC. In kind it is in vitro ADME, human. Particulars: for increase in uptake with decreasing pH from 7 to 6.5: 10 µM strawberry anthocyanins; for uptake reduction in the presence of glucose: 20 µM red grape anthocyanin extract, 1 mM glucose vs control without glucose; for Normalised Uptake (%): extrapolated to initial amount 10 µg/10 mL, intercept set at zero; for Uptake (%): 1 h, % of initial concentration. How it is done:
Caco-2 cells were seeded at a density of 5 × 10^5 cells in a Petri dish of 10 cm diameter with a volume of 10 mL, containing DMEM supplemented with 10% FBS, 1% NEAA and 1% penicillin and streptomycin. […] Caco-2 cells were used between passages 65–76. The medium was changed every 2–3 days. On day 14, the cells were ready for the uptake experiment. Prior to the study, the medium were removed, and the cells were rinsed with PBS.
The effect of anthocyanin structure was examined using anthocyanin extract from strawberry at 10 and 20 µM while the effect of glucose was performed at 20 µM red grape anthocyanin extract in the presence of 1 mM glucose. Additionally, 10 µM strawberry anthocyanins at pH 6.5 and 7 was used to examine the effect of pH on anthocyanin uptake.
Briefly anthocyanin stock solution was diluted to a final concentration of 10 or 20 µM in DPBS. The anthocyanins (10 mL) were immediately added to the cells, and subsequently incubated at 37 °C for 1h. Following the incubation, DPBS containing anthocyanins was removed and the cells were washed with PBS three times. The anthocyanins taken up by the cells were extracted with 6% formic acid and scraped off for collection. The extract along with the scraped cells were then sonicated, followed by centrifugation at 4 °C, 1700× g for 10 min. The supernatant was filtered and dried under nitrogen. The dry anthocyanins were redissolved in 200 µL of aqueous formic acid containing 10% acidified methanol, and then filtered into the insert prior to HPLC analysis.
HPLC was used to identify and quantify anthocyanins present in juices and cellular extract following the uptake experiment. Anthocyanin standards and their standard curves were used to identify and quantify different anthocyanin structure present in juices and cellular extracts by determining their area under curve. The analysis was performed using an Agilent 1200 series HPLC with quaternary pump and diode array UV-visible detector. Sample (50 µL) was injected onto a reverse phase column of Nova-pak@C18 4 µm, with dimensions of 4.6 × 250 mm (Waters) equipped with a guard column. The mobile phases were 1% aqueous formic acid as solvent A and acetonitrile as solvent B. The flow rate was 1 mL/min with a column temperature of 35 °C. […] Solvent B was maintained at 100% for 5 min, and returned to 100% solvent A and 0% solvent B at 60 min. Wavelengths of 280 and 520 nm were chosen to detect the anthocyanins.

Data set [1] can be described thus: Anthocyanin stability during 1 h incubation at pH 7 and 6.5. The class given is physicochemical. How it is done:
To assess degradation due to the pH, strawberry juice extract was incubated under the same conditions in the absence of the cells (Figure 3II). […] Anthocyanins can form additional compounds important for copigmentation with phenolic acids and can form pyranoanthocyanins.
The increased uptake with decreasing pH may be linked to the anthocyanins stability and indicate the involvement of pH dependent transport mechanisms involving a proton co-transporter.

Data set [2] in a line: Extrapolation of Caco-2 uptake to jejunum uptake and blood/plasma concentration. The following applies: absorption of 0.88 mg, assuming 5 litres of blood.
On the set-up of data set [3]: method as in PMID 18211024. Particulars: strawberries containing 222 µmol pelargonidin-3-O-glucoside ingested; cited from earlier work.
[4] abbreviates: strawberry anthocyanins at 10 µM, initial amount Cn 1.91, Pg 45.69, Pg-rham 14.50 µg/10 mL.
The mark [5] stands for this setting: strawberry anthocyanins at 20 µM, initial amount Cn 3.89, Pg 95.23, Pg-rham 29.59 µg/10 mL.

On to `OC[C@H]1O[C@@H](Oc2cc3c(O)cc(O)cc3[o+]c2-c2ccc(O)c(O)c2)[C@H](O)[C@@H](O)[C@@H]1O` [cyanidin-3-glucoside], for which, in the data set with Caco-2 cells, the “increase in uptake with decreasing pH from 7 to 6.5” value stood at 139%. In addition, in the data set with Caco-2 cells, the “uptake reduction in the presence of glucose” value (from here on “uptake reduction”) was determined as 67%. Moreover, the “Normalised Uptake (%)” value with Caco-2 cells is 0.159%. The “Uptake (%)” value was 2.32 × 10^−2% in the data set on Caco-2 cells (setting [4]) and 6.54 × 10^−2% with Caco-2 cells (strawberry anthocyanins at 20 µM, initial amount Cn 3.89, Pg 95.23, Pg-rham 29.59 µg/10 mL, listed as Cn). In addition, the stability in data set [1] (pH 6.5, 1 h incubation) was 88.7%; in data set [1] (pH 7, 1 h incubation) it was 63.1%.

For `OC[C@H]1O[C@@H](Oc2cc3c(O)cc(O)cc3[o+]c2-c2cc(O)c(O)c(O)c2)[C@H](O)[C@@H](O)[C@@H]1O` [delphinidin-3-glucoside], the “uptake reduction” value with Caco-2 cells was determined as 42%.

`COc1cc(-c2[o+]c3cc(O)cc(O)c3cc2O[C@@H]2O[C@H](CO)[C@@H](O)[C@H](O)[C@H]2O)cc(OC)c1O` [malvidin-3-glucoside]: the “uptake reduction” value in the data set with Caco-2 cells was 69–72%.

Take `OC[C@H]1O[C@@H](Oc2cc3c(O)cc(O)cc3[o+]c2-c2ccc(O)cc2)[C@H](O)[C@@H](O)[C@@H]1O` [pelargonidin-3-glucoside]: in the data set on Caco-2 cells, the “increase in uptake with decreasing pH from 7 to 6.5” value came out at 118% and the “Normalised Uptake (%)” value was 0.007%. Moreover, the “Uptake (%)” value in the data set on Caco-2 cells (setting [4]) is reported as 2.88 × 10^−2%. The “Uptake (%)” value in the data set on Caco-2 cells (setting [5]) was 6.95 × 10^−2%. Besides, the stability in data set [1] (pH 6.5, 1 h incubation) came out at 93.7%. In addition, in data set [1] (pH 7, 1 h incubation), the stability was 67.7%. In data set [2], the blood concentration is 0.4 µM and the plasma concentration is 0.727 µM.

Consider `COc1cc(-c2[o+]c3cc(O)cc(O)c3cc2O[C@@H]2O[C@H](CO)[C@@H](O)[C@H](O)[C@H]2O)cc(O)c1O` [petunidin-3-glucoside], for which, in the data set on Caco-2 cells, the “uptake reduction” value is given as 69–72%.

With pelargonidin-3-rhamnosylglucoside, the “increase in uptake with decreasing pH from 7 to 6.5” value with Caco-2 cells is on record as 88%. The “Normalised Uptake (%)” value with Caco-2 cells is 0.02%. Moreover, the “Uptake (%)” value was 2.66 × 10^−2% in the data set on Caco-2 cells (setting [4]) and 5.93 × 10^−2% in the data set on Caco-2 cells (setting [5]). For the same molecule, the stability in data set [1] (pH 6.5, 1 h incubation) is recorded as 91.8%; in data set [1] (pH 7, 1 h incubation) it was 72.3%.

With pelargonidin-O-glucuronide, in data set [3], the peak plasma concentration is 274 ± 24 nM and the “time of peak plasma concentration” value is 1.1 ± 0.4 h.
